# In patent US10294202B2, “Pyrrolidinones as herbicides” (FMC Corporation, priority 2013, dated 2019):
# Experiments:
# barnyardgrass [1] = test: Test A pre-/postemergence herbicide test; format: in vivo, Echinochloa crus-galli; settings: 1000 g ai/ha
# In short: (§1)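 Both application timings used compounds in a non-phytotoxic solvent plus surfactant. Pre-emergence: soil sprayed directly after seeding into loam/sand. Post-emergence: foliage of 2–10 cm seedlings (1–2 leaves) sprayed. Injury rated ~10 days later, 0–100.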
# crabgrass, large = test: Test A pre-/postemergence herbicide test; format: in vivo, Digitaria sanguinalis; settings: 1000 g ai/ha
# In short: as §1
# giant foxtail = test: Test A pre-/postemergence herbicide test; format: in vivo, Setaria faberii; settings: 1000 g ai/ha
# In short: as §1
# morningglory = test: Test A pre-/postemergence herbicide test; format: in vivo, Ipomoea spp.; settings: 1000 g ai/ha
# In short: as §1
# pigweed = test: Test A pre-/postemergence herbicide test; format: in vivo, Amaranthus retroflexus; settings: 1000 g ai/ha
# In short: as §1
# velvetleaf = test: Test A pre-/postemergence herbicide test; format: in vivo, Abutilon theophrasti; settings: 1000 g ai/ha
# In short: as §1
# wheat = test: Test A pre-/postemergence herbicide test; format: in vivo, Triticum aestivum; settings: 1000 g ai/ha
# In short: as §1
# corn = test: Test A pre-/postemergence herbicide test; format: in vivo, Zea mays; settings: 1000 g ai/ha
# In short: as §1
# rice = test: Test C flooded paddy test; format: in vivo, Oryza sativa; settings: Flood
# In short: (§2)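 Plants at the 2-leaf stage in pots flooded to 3 cm were treated by applying compound directly to the paddy water, with depth held throughout. After 13 to 15 days in a greenhouse, response was rated visually against controls on a 0 (no effect) to 100 (complete control) scale.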
# sedge, umbrella = test: Test C flooded paddy test; format: in vivo, Cyperus difformis; settings: Flood
# In short: as §2
# ducksalad = test: Test C flooded paddy test; format: in vivo, Heteranthera limosa; settings: Flood
# Source text: Plant species in the flooded paddy test consisted of rice (Oryza sativa), sedge, umbrella (small-flower umbrella sedge, Cyperus difformis), ducksalad (Heteranthera limosa), and barnyardgrass (Echinochloa crus-galli) grown to the 2-leaf stage for testing. At time of treatment, test pots were flooded to 3 cm above the soil surface, treated by application of test compounds directly to the paddy water, and then maintained at that water depth for the duration of the test. Treated plants and controls were maintained in a greenhouse for 13 to 15 days, after which time all species were compared to controls and visually evaluated. Plant response ratings, summarized in Table C, are based on a scale of 0 to 100 where 0 is no effect and 100 is complete control. A dash (-) response means no test result.
# barnyardgrass [2] = test: Test C flooded paddy test; format: in vivo, Echinochloa crus-galli; settings: Flood
# In short: as §2
# [3] = Postemergence, 0 to 100 scale (0 no effect, 100 complete control)
# [4] = Preemergence, visual rating on 0 to 100 scale (0 no effect, 100 complete control), approx. 10 days
# [5] = 31 g ai/ha, scale of 0 to 100 where 0 is no effect and 100 is complete control, 13 to 15 days
# [6] = 62 g ai/ha, scale of 0 to 100 where 0 is no effect and 100 is complete control, 13 to 15 days
# [7] = 125 g ai/ha, scale of 0 to 100 where 0 is no effect and 100 is complete control, 13 to 15 days
SMILES,"Plant response rating, Barnyardgrass (barnyardgrass [1]; [3])","Plant response rating, Barnyardgrass (barnyardgrass [1]; [4])","Plant response rating, Crabgrass, Large (crabgrass, large; [3])","Plant response rating, Crabgrass, Large (crabgrass, large; [4])","Plant response rating, Foxtail, Giant (giant foxtail; [3])","Plant response rating, Foxtail, Giant (giant foxtail; [4])","Plant response rating, Morningglory (morningglory; [3])","Plant response rating, Morningglory (morningglory; [4])","Plant response rating, Pigweed (pigweed; [4])","Plant response rating, Velvetleaf (velvetleaf; [3])","Plant response rating, Velvetleaf (velvetleaf; [4])","Plant response rating, Wheat (wheat; [3])","Plant response rating, Wheat (wheat; [4])","Plant response rating, Corn (corn; [3])","Plant response rating, Corn (corn; [4])","Plant response rating, Rice (rice; [6])","Plant response rating, Rice (rice; 250 g ai/ha, scale 0 to 100)","Plant response rating, Sedge, Umbrella (sedge, umbrella; [6])","Plant response rating, Sedge, Umbrella (sedge, umbrella; 250 g ai/ha, scale 0 to 100)","Plant response rating, Ducksalad (ducksalad; [6])",also measured
O=C1NCC(c2ccc(F)c(F)c2)C1C(=O)Nc1cccc(Cl)c1 (racemic) [Compound 18],50,80,70,80,70,80,0,0,0,0,0,0,0,0,0,0,0,0,0,0,"Plant response rating, Pigweed (pigweed; [3]): 0; Plant response rating, Rice (rice; [5]): 0; Plant response rating, Rice (rice; [7]): 0; Plant response rating, Sedge, Umbrella (sedge, umbrella; [5]): 0; Plant response rating, Sedge, Umbrella (sedge, umbrella; [7]): 0; Plant response rating, Ducksalad (ducksalad; [5]): 0; Plant response rating, Ducksalad (ducksalad; [7]): 0; Plant response rating, Ducksalad (ducksalad; 250 g ai/ha, scale 0 to 100): 0; Plant response rating, Barnyardgrass (barnyardgrass [2]; [5]): 0; Plant response rating, Barnyardgrass (barnyardgrass [2]; [6]): 0; Plant response rating, Barnyardgrass (barnyardgrass [2]; [7]): 0; Plant response rating, Barnyardgrass (barnyardgrass [2]; 250 g ai/ha, scale 0 to 100): 0"
Cc1ccccc1NC(=O)C1C(=O)NCC1c1ccc(F)c(F)c1 (racemic) [Compound 19],90,90,90,90,80,90,0,0,0,10,0,30,0,0,0,0,0,0,0,0,"Plant response rating, Pigweed (pigweed; [3]): 0; Plant response rating, Rice (rice; [5]): 0; Plant response rating, Rice (rice; [7]): 0; Plant response rating, Sedge, Umbrella (sedge, umbrella; [5]): 0; Plant response rating, Sedge, Umbrella (sedge, umbrella; [7]): 0; Plant response rating, Ducksalad (ducksalad; [5]): 0; Plant response rating, Ducksalad (ducksalad; [7]): 0; Plant response rating, Ducksalad (ducksalad; 250 g ai/ha, scale 0 to 100): 0; Plant response rating, Barnyardgrass (barnyardgrass [2]; [5]): 0; Plant response rating, Barnyardgrass (barnyardgrass [2]; [6]): 0; Plant response rating, Barnyardgrass (barnyardgrass [2]; [7]): 0; Plant response rating, Barnyardgrass (barnyardgrass [2]; 250 g ai/ha, scale 0 to 100): 0"
CS(=O)(=O)c1ccccc1NC(=O)C1C(=O)NCC1c1ccc(F)c(F)c1 (racemic) [Compound 21],90,90,80,90,80,90,0,40,40,60,50,30,20,0,0,0,0,0,0,0,"Plant response rating, Rice (rice; [5]): 0; Plant response rating, Rice (rice; [7]): 0; Plant response rating, Sedge, Umbrella (sedge, umbrella; [5]): 0; Plant response rating, Sedge, Umbrella (sedge, umbrella; [7]): 0; Plant response rating, Ducksalad (ducksalad; [5]): 0; Plant response rating, Ducksalad (ducksalad; [7]): 50; Plant response rating, Ducksalad (ducksalad; 250 g ai/ha, scale 0 to 100): 85; Plant response rating, Barnyardgrass (barnyardgrass [2]; [5]): 0; Plant response rating, Barnyardgrass (barnyardgrass [2]; [6]): 0; Plant response rating, Barnyardgrass (barnyardgrass [2]; [7]): 0; Plant response rating, Barnyardgrass (barnyardgrass [2]; 250 g ai/ha, scale 0 to 100): 0"
O=C1NCC(c2ccc(Cl)c(Cl)c2)C1C(=O)Nc1cccc(F)c1F (racemic) [Compound 25],80,80,80,90,90,90,10,0,0,10,0,0,0,0,0,0,0,0,0,0,"Plant response rating, Pigweed (pigweed; [3]): 0; Plant response rating, Ducksalad (ducksalad; 250 g ai/ha, scale 0 to 100): 60; Plant response rating, Barnyardgrass (barnyardgrass [2]; [6]): 0; Plant response rating, Barnyardgrass (barnyardgrass [2]; 250 g ai/ha, scale 0 to 100): 0"
